For series [1], the system named is peritoneal carcinomatosis. The series can be described thus: Instillation of chemotherapy directly into the abdomen with low energy ultrasound in a patient with peritoneal carcinomatosis (Examples III, IV). The following applies: with ultrasound at less than 100 kHz and less than 50 W; intraperitoneal instillation. It is filed as in vivo. As to the method:
The chosen drug is dissolved in 100 ml of normal saline, injected into the catheter and followed by another 100 ml of normal saline for flushing. The patient's position is shifted every few minutes for an hour to disperse the drug. […] The chosen drug is bleomycin (15 units), 5-fluorouracil(1000 mg), thiotepa (45 mg) Adriamycin (30 mg) cisplatin, or a-IFN.
The procedure set forth in Example III is repeated with the chosen drug administered with microbubbles and the interval of repeated doses is further increased.

The next series concerns hepatic metastases. The following applies: human, in vivo.

These results are taken from patent publication US20010039952A1, “ULTRASOUND ENHANCED CHEMOTHERAPY” (Walter A. Hacker, Ph. D, priority 1998, published 2001).

For the molecule bleomycin, in series [1], the “interval of repeated doses” value is “increases the interval of repeated doses”.
The same measure, in the same setting: the result for `N.N.[Cl][Pt][Cl]` [cisplatin] reads “increases the interval of repeated doses”.
Turning to `O=c1[nH]c(=O)n([C@H]2C[C@H](O)[C@@H](CO)O2)cc1F` [flexuridine], the drug toxicity entry with hepatic metastases is recorded as “less drug toxicity”.
For the molecule `COc1cccc2c1C(=O)c1c(O)c3c(c(O)c1C2=O)C[C@@](O)(C(=O)CO)C[C@@H]3O[C@H]1C[C@H](N)[C@H](O)[C@H](C)O1` [Adriamycin, Doxorubicin], the “interval of repeated doses” value in series [1] is recorded as “increases the interval of repeated doses”. Besides, the drug toxicity result with hepatic metastases is “less drug toxicity”.
Consider `S=P(N1CC1)(N1CC1)N1CC1` [thiotepa], for which the “interval of repeated doses” value in series [1] is “increases the interval of repeated doses”.
Consider `O=c1[nH]cc(F)c(=O)[nH]1` [fluorouracil], for which the “interval of repeated doses” value in series [1] is listed as “increases the interval of repeated doses”. Further, the drug toxicity entry in the series with hepatic metastases is on record as “less drug toxicity”.
